Test results as given in patent US8168231B2, “Antimicrobial composition useful for preserving wood” (Rohm and Haas Company, priority 2006, dated 2012).
Read-outs that look alike come from different tables or passages of the source.

Tests used:
Type in all cases: cell-based
[1] = system: Aspergillus niger (A. niger—ATCC 16404); experiment: Synergy test, microtiter plate high resolution MIC assay (PDB medium); conditions: ppm AI; for MIC: Aspergillus niger, read-out: MIC of component acting alone (Ca or Cb)
Source text: (§1) One measure of synergism is the industrially accepted method described by Kull, F. C.; Eisman, P. C.; Sylwestrowicz, H. D. and Mayer, R. L., in Applied Microbiology 9:538-541 (1961), using the ratio determined by the formula: Ca/CA+Cb/CB=Synergy Index (“SI”) wherein: • CA=concentration of compound A (first component) in ppm, acting alone, which produced an end point (MIC of Compound A). • Ca=concentration of compound A in ppm, in the mixture, which produced an end point. • CB=concentration of compound B (second component) in ppm, acting alone, which produced an end point (MIC of Compound B). • Cb=concentration of compound B in ppm, in the mixture, which produced an end point.
(§2) When the sum of Ca/CA and Cb/CB is greater than one, antagonism is indicated. […] The lower the SI, the greater the synergy shown by that particular mixture. The minimum inhibitory concentration (MIC) of an antimicrobial compound is the lowest concentration tested under a specific set of conditions that prevents the growth of added microorganisms.
(§3) Synergy tests were conducted using standard microtiter plate assays with media designed for optimal growth of the test microorganism. Minimal salt medium supplemented with 0.2% glucose and 0.1% yeast extract (M9GY medium) was used for bacteria testing; Potato Dextrose Broth (PDB medium) was used for yeast and mold testing. In this method, a wide range of combinations of microbicides was tested by conducting high resolution MIC assays in the presence of various concentrations of biocides. High resolution MICs were determined by adding varying amounts of microbicide to one column of a microtitre plate and doing subsequent ten-fold dilutions using an automated liquid handling system to obtain a series of end points ranging of active ingredient. The synergy of the combinations of the present invention was determined against two bacteria, Pseudomonas aeruginosa (Ps. aeruginosa—ATCC # 9027) and Staphylococcus aureus (S. aureus—ATCC # 6538), a yeast, Candida albicans (C. albicans—ATCC # 10231), and a mold, Aspergillus niger (A. niger—ATCC 16404). The bacteria were used at a concentration of about 1-6×10^6 bacteria per mL and the yeast and mold at 1−5×10^5 fungi per mL. These microorganisms are representative of natural contaminants in many consumer and industrial applications. […] (yeast and mold) or 30° C. (bacteria).

[2] = system: Candida albicans (C. albicans—ATCC # 10231); experiment: as above; conditions: ppm AI; for MIC: Candida albicans, read-out: MIC of component acting alone (Ca or Cb)
Source text: as §1, §2, §3

[3] = system: Pseudomonas aeruginosa (Ps. aeruginosa—ATCC # 9027); experiment: Synergy test, microtiter plate high resolution MIC assay (M9GY medium); conditions: ppm AI; for MIC: Pseudomonas aeruginosa, read-out: MIC of component acting alone (Ca or Cb)
Source text: as §1, §2, §3

[4] = system: Staphylococcus aureus (S. aureus—ATCC # 6538); experiment: as above; conditions: ppm AI; for MIC: Staphylococcus aureus, read-out: MIC of component acting alone (Ca or Cb)
Source text: as §1, §2, §3

For `CCCCCCCCn1sc(Cl)c(Cl)c1=O` [DCOIT, 4,5-dichloro-2-n-octyl-4-isothiazolin-3-one], the MIC ([1]; ATCC16404, 72 h, Table 1, contact time 3 days) was 0.25 µg/mL, the MIC ([1]; ATCC16404, 72 h, Table 2, contact time 3 days) was 0.0875 µg/mL and the MIC ([1]; ATCC16404, 168 h, Table 1, contact time 7 days) was 0.25 µg/mL. For the same molecule, the MIC ([1]; ATCC16404, 168 h, Table 2, contact time 7 days) was 0.2 µg/mL, the MIC ([2]; ATCC10231, Table 1, contact time 48 hrs) was 1 µg/mL and the MIC ([2]; ATCC10231, Table 1, contact time 72 hrs) was 1 µg/mL. For the same molecule, the MIC ([3]; ATCC9027, 24 h, Table 1, contact time 24 hrs) was 3 µg/mL, the MIC ([3]; ATCC9027, 24 h, Table 2, contact time 24 hrs) was 2 µg/mL and the MIC ([3]; ATCC9027, 48 h, Table 1, contact time 48 hrs) was 3 µg/mL. The MIC ([3]; ATCC9027, 48 h, Table 2, contact time 48 hrs) was 4.25 µg/mL, the MIC ([4]; ATCC6538, 24 h, Table 1, contact time 24 hrs) was 0.5 µg/mL and the MIC ([4]; ATCC6538, 24 h, Table 2, contact time 24 hrs) was 0.65 µg/mL. For the same molecule, the MIC ([4]; ATCC6538, 48 h, Table 1, contact time 48 hrs) was 0.5 µg/mL and the MIC ([4]; ATCC6538, 48 h, Table 2, contact time 48 hrs) was 0.65 µg/mL.

“Monoethanolamine complex of copper carbonate [Cu-MEA]” was tested, and the “MIC of component acting alone (Ca or Cb)” value ([1]; Table 1, contact time 3 days) was 300 ppm, the “MIC of component acting alone (Ca or Cb)” value ([1]; Table 1, contact time 7 days) was 300 ppm and the “MIC of component acting alone (Ca or Cb)” value ([2]; Table 1, contact time 48 hrs) was 200 ppm. For the same molecule, the “MIC of component acting alone (Ca or Cb)” value ([2]; Table 1, contact time 72 hrs) was 200 ppm, the “MIC of component acting alone (Ca or Cb)” value ([3]; Table 1, contact time 24 hrs) was 120 ppm and the “MIC of component acting alone (Ca or Cb)” value ([3]; Table 1, contact time 48 hrs) was 120 ppm. For the same molecule, the “MIC of component acting alone (Ca or Cb)” value ([4]; Table 1, contact time 24 hrs) was 80 ppm and the “MIC of component acting alone (Ca or Cb)” value ([4]; Table 1, contact time 48 hrs) was 200 ppm.
